# Reference: patent publication US10780071B2, “Compositions, methods and/or devices for prevention and/or treatment of dry eye disorders” (Brien Holden Vision Institute Limited, priority 2012, dated 2020)
# Where two headings read alike, the source gives them in different places.
# Key:
# [1] = tested on: S. epidermidis 024; assay: Bacterial growth, optical density of cultures at 660 nm; format: cell-based; details: read-out: Inhibition of Growth
# Experimental: (§1) The bacterial strains S. aureus 020 & 134, and S. epidermidis 024 & 025 were grown at 37° C. in TSB treated with 0, 6.25 or 12.5 μg/ml of glycerol monolaurate or lauric acid as well as in TSB extraction of glycerol monolaurate ointment prior to assay of bacterial growth and lipase activity. After incubation for 24 h, bacterial growth was determined by measuring the optical density of cultures using a spectrophotometer at a wavelength of 660 nm. Lipase activity by test bacterial strains under various treatments were assessed by examining the lipase activity in bacterial culture supernatants with a QuantiChrom™ Lipase Assay Kit.
# [2] = tested on: S. aureus 134; assay: as above; format: cell-based; details: Staphylococcus aureus, TSB, 37° C., 24 h
# Experimental: as §1
# [3] = tested on: S. aureus 020; assay: as above; format: cell-based; details: Staphylococcus aureus, 020, 24 h, read-out: Inhibition of Growth
# Experimental: as §1
# [4] = tested on: S. epidermidis 025; assay: as above; format: cell-based; details: read-out: Inhibition of Growth
# Experimental: as §1
# [5] = tested on: lipase; assay: Lipase activity in bacterial culture supernatants (QuantiChrom Lipase Assay Kit); format: cell-based; details: S. aureus 134, TSB, 37° C., 24 h
# Experimental: as §1, with “epidermidis 024 & 025 were grown at 37° C. in TSB treated with 0, 6.25 or 12.5 μg/ml of glycerol monolaurate or lauric acid as well as” left out
# [6] = tested on: S. aureus 020 & 134, and S. epidermidis 024 & 025; assay: Bacterial growth, summary over the test strains; format: cell-based; details: concentrations of Tables 1-4; 24 h
# Experimental: as §1
# [7] = tested on: lipase; assay: Lipase activity in bacterial culture supernatants (QuantiChrom Lipase Assay Kit); format: cell-based; details: S. aureus 020, TSB, 37° C., 24 h
# Experimental: as §1, with “and S. epidermidis 024 & 025 were grown at 37° C. in TSB treated with 0, 6.25 or 12.5 μg/ml of glycerol monolaurate or lauric acid as well as” left out
# [8] = tested on: lipase; assay: Lipase activity in culture supernatants, summary over the test strains; format: cell-based, S. aureus 020 & 134, and S. epidermidis 024 & 025
# Experimental: as §1, with “and S. epidermidis 024 & 025 were grown at 37° C. in TSB treated with 0, 6.25 or 12.5 μg/ml of glycerol monolaurate or lauric acid as well as in TSB extraction” left out
# [9] = tested on: lipase; assay: Lipase activity in bacterial culture supernatants (QuantiChrom Lipase Assay Kit); format: cell-based; details: TSB, 37° C., 24 h
# Experimental: as §1
# [10] = Staphylococcus epidermidis, 024, 24 h
# [11] = glycerol monolaurate 12.5 μg/ml
# [12] = glycerol monolaurate 17.5 μg/ml
# [13] = Staphylococcus epidermidis, 025, 24 h
compound,measurement,setting,value
CCCCCCCCCCCC(=O)OCC(O)CO (stereo not shown) [Glycerol monolaurate],inhibition at 6.25 µg/mL,[1]; [10],0%
same,inhibition at 12.5 µg/mL,[1]; [10],0%
same,inhibition at 10 µg/mL,[2]; glycerol monolaurate 10 μg/ml,0%
same,inhibition at 12.5 µg/mL,[2]; [11],0%
same,inhibition at 15 µg/mL,[2]; glycerol monolaurate 15 μg/ml,1%
same,inhibition at 17.5 µg/mL,[2]; [12],0%
same,inhibition at 5 µg/mL,[3],1%
same,inhibition at 7.5 µg/mL,[3],0%
same,inhibition at 10 µg/mL,[3],4%
same,inhibition at 12.5 µg/mL,[3],4%
same,inhibition at 15 µg/mL,[3],2%
same,inhibition at 17.5 µg/mL,[3],0%
same,inhibition at 6.25 µg/mL,[4]; [13],0%
same,inhibition at 12.5 µg/mL,[4]; [13],0%
same,Inhibition of Lipase activity,[5]; glycerol monolaurate 10 μg/ml,25%
same,Inhibition of Lipase activity,[5]; [11],38%
same,Inhibition of Lipase activity,[5]; glycerol monolaurate 15 μg/ml,49%
same,Inhibition of Lipase activity,[5]; [12],63%
same,effect on growth of the bacterial strains at the concentrations used,[6],do not substantially inhibit growth
same,Inhibition of Lipase activity,[7]; glycerol monolaurate 5 μg/ml,16%
same,Inhibition of Lipase activity,[7]; glycerol monolaurate 7.5 μg/ml,29%
same,Inhibition of Lipase activity,[7]; glycerol monolaurate 10 μg/ml,50%
same,Inhibition of Lipase activity,[7]; [11],63%
same,Inhibition of Lipase activity,[7]; glycerol monolaurate 15 μg/ml,73%
same,Inhibition of Lipase activity,[7]; [12],88%
same,inhibits lipase activity by approximately (range over Table 1),[8]; all strains and concentrations of Table 1 (5-17.5 μg/ml),16-88%
same,Inhibition of Lipase activity,"[9]; S. epidermidis 024, glycerol monolaurate 6.25 μg/ml",46%
same,Inhibition of Lipase activity,"[9]; S. epidermidis 024, glycerol monolaurate 12.5 μg/ml",70%
same,Inhibition of Lipase activity,"[9]; S. epidermidis 025, glycerol monolaurate 6.25 μg/ml",48%
same,Inhibition of Lipase activity,"[9]; S. epidermidis 025, glycerol monolaurate 12.5 μg/ml",72%
CCCCCCCCCCCC(=O)O [Lauric acid],inhibition at 6.25 µg/mL,"[1]; Staphylococcus epidermidis, S. epidermidis 024, lauric acid 6.25 μg/ml, TSB, 37° C., 24 h",0%
same,inhibition at 12.5 µg/mL,"[1]; Staphylococcus epidermidis, S. epidermidis 024, lauric acid 12.5 μg/ml, TSB, 37° C., 24 h",0%
same,inhibition at 6.25 µg/mL,"[4]; Staphylococcus epidermidis, S. epidermidis 025, lauric acid 6.25 μg/ml, TSB, 37° C., 24 h",0%
same,inhibition at 12.5 µg/mL,"[4]; Staphylococcus epidermidis, S. epidermidis 025, lauric acid 12.5 μg/ml, TSB, 37° C., 24 h",0%
same,effect on growth of the bacterial strains at the concentrations used,[6],do not substantially inhibit growth
same,inhibits lipase activity by approximately (range over Table 2),"[8]; S. epidermidis 024 and 025, 6.25 and 12.5 μg/ml (Table 2)",46-72%
same,Inhibition of Lipase activity,"[9]; S. epidermidis 024, lauric acid 6.25 μg/ml",46%
same,Inhibition of Lipase activity,"[9]; S. epidermidis 024, lauric acid 12.5 μg/ml",70%
same,Inhibition of Lipase activity,"[9]; S. epidermidis 025, lauric acid 6.25 μg/ml",48%
same,Inhibition of Lipase activity,"[9]; S. epidermidis 025, lauric acid 12.5 μg/ml",72%
